Patent US20100041089A1, “IMPROVED METHOD FOR DETECTING CHEMICAL […]” (priority 2006, published 2010)

Test system: yeast genes (expressed mRNA)
Assay: DNA chip measurement of expressed mRNA of yeast genes after culture with a toxic chemical substance
Format: cell-based, Saccharomyces cerevisiae S288C
Conditions: for level of expressed mRNA in the presence of chemical substance / level in the absence of chemical substance: cultured two hours with the chemical substance; for The level of expressed mRNA in the presence of chemical substance/The level of expressed mRNA in the absence of chemical substance: cultured two hours with substance
How it was run: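 Yeast S288C, YPD 25° C; toxicant at log phase, 2 h, sublethal growth-inhibiting conc.; no-chemical control. Hot SDS/acetate RNA extraction, oligo-dT mRNA, Cy3/Cy5-dUTP RT. Whole-genome chip, 65° C >12 h. Readout: treated/control intensity ratio, ≥2 significant.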

[Cl][Cd][Cl] [(2), CdCl2]
The level of expressed mRNA in the presence of chemical substance/The level of expressed mRNA in the absence of chemical substance, yeast gene YBR036C (gene YBR036C, Metabolism protein genes, DNA chip fluorescence ratio): 1.7
The level of expressed mRNA in the presence of chemical substance/The level of expressed mRNA in the absence of chemical substance, yeast gene YBR298C (gene YBR298C, Metabolism protein genes, DNA chip fluorescence ratio): 1.0
The level of expressed mRNA in the presence of chemical substance/The level of expressed mRNA in the absence of chemical substance, yeast gene YDL067C (gene YDL067C (mitochondria-located protein gene), yeast cultured two hours with chemical substance, DNA chip fluorescence ratio to control): 1.0
The level of expressed mRNA in the presence of chemical substance/The level of expressed mRNA in the absence of chemical substance, yeast gene YDL078C (gene YDL078C, Metabolism protein genes, DNA chip fluorescence ratio): 1.1
The level of expressed mRNA in the presence of chemical substance/The level of expressed mRNA in the absence of chemical substance, yeast gene YDL215C (gene YDL215C, Metabolism protein genes, DNA chip fluorescence ratio): 1.5
The level of expressed mRNA in the presence of chemical substance/The level of expressed mRNA in the absence of chemical substance, yeast gene YDR079W (gene YDR079W (mitochondria-located protein gene), yeast cultured two hours with chemical substance, DNA chip fluorescence ratio to control): 1.1
The level of expressed mRNA in the presence of chemical substance/The level of expressed mRNA in the absence of chemical substance, yeast gene YDR297W (gene YDR297W, Metabolism protein genes, DNA chip fluorescence ratio): 0.8
The level of expressed mRNA in the presence of chemical substance/The level of expressed mRNA in the absence of chemical substance, yeast gene YDR387C (gene YDR387C, Metabolism protein genes, DNA chip fluorescence ratio): 0.9
The level of expressed mRNA in the presence of chemical substance/The level of expressed mRNA in the absence of chemical substance, yeast gene YGL035C (gene YGL035C, Metabolism protein genes, DNA chip fluorescence ratio): 1.4
The level of expressed mRNA in the presence of chemical substance/The level of expressed mRNA in the absence of chemical substance, yeast gene YGR062C (gene YGR062C (mitochondria-located protein gene), yeast cultured two hours with chemical substance, DNA chip fluorescence ratio to control): 1.0
The level of expressed mRNA in the presence of chemical substance/The level of expressed mRNA in the absence of chemical substance, yeast gene YGR287C (gene YGR287C, Metabolism protein genes, DNA chip fluorescence ratio): 1.0
The level of expressed mRNA in the presence of chemical substance/The level of expressed mRNA in the absence of chemical substance, yeast gene YJL070C (gene YJL070C, Metabolism protein genes, DNA chip fluorescence ratio): 0.9
The level of expressed mRNA in the presence of chemical substance/The level of expressed mRNA in the absence of chemical substance, yeast gene YJL096W (gene YJL096W (mitochondria-located protein gene), yeast cultured two hours with chemical substance, DNA chip fluorescence ratio to control): 1.0
The level of expressed mRNA in the presence of chemical substance/The level of expressed mRNA in the absence of chemical substance, yeast gene YJL180C (gene YJL180C (mitochondria-located protein gene), yeast cultured two hours with chemical substance, DNA chip fluorescence ratio to control): 1.6
The level of expressed mRNA in the presence of chemical substance/The level of expressed mRNA in the absence of chemical substance, yeast gene YKR009C (gene YKR009C, Metabolism protein genes, DNA chip fluorescence ratio): 1.2
The level of expressed mRNA in the presence of chemical substance/The level of expressed mRNA in the absence of chemical substance, yeast gene YLR295C (gene YLR295C (mitochondria-located protein gene), yeast cultured two hours with chemical substance, DNA chip fluorescence ratio to control): 1.1
The level of expressed mRNA in the presence of chemical substance/The level of expressed mRNA in the absence of chemical substance, yeast gene YLR351C (gene YLR351C, Metabolism protein genes, DNA chip fluorescence ratio): 1.4
The level of expressed mRNA in the presence of chemical substance/The level of expressed mRNA in the absence of chemical substance, yeast gene YLR375W (gene YLR375W, Metabolism protein genes, DNA chip fluorescence ratio): 1.5
The level of expressed mRNA in the presence of chemical substance/The level of expressed mRNA in the absence of chemical substance, yeast gene YMR023C (gene YMR023C (mitochondria-located protein gene), yeast cultured two hours with chemical substance, DNA chip fluorescence ratio to control): 1.3
The level of expressed mRNA in the presence of chemical substance/The level of expressed mRNA in the absence of chemical substance, yeast gene YMR267W (gene YMR267W (mitochondria-located protein gene), yeast cultured two hours with chemical substance, DNA chip fluorescence ratio to control): 1.8
The level of expressed mRNA in the presence of chemical substance/The level of expressed mRNA in the absence of chemical substance, yeast gene YMR267W (gene YMR267W, Metabolism protein genes, DNA chip fluorescence ratio): 1.8
The level of expressed mRNA in the presence of chemical substance/The level of expressed mRNA in the absence of chemical substance, yeast gene YMR278W (gene YMR278W, Metabolism protein genes, DNA chip fluorescence ratio): 1.7
The level of expressed mRNA in the presence of chemical substance/The level of expressed mRNA in the absence of chemical substance, yeast gene YMR293C (gene YMR293C, Metabolism protein genes, DNA chip fluorescence ratio): 1.5
The level of expressed mRNA in the presence of chemical substance/The level of expressed mRNA in the absence of chemical substance, yeast gene YNL073W (gene YNL073W (mitochondria-located protein gene), yeast cultured two hours with chemical substance, DNA chip fluorescence ratio to control): 1.4
The level of expressed mRNA in the presence of chemical substance/The level of expressed mRNA in the absence of chemical substance, yeast gene YNR072W (gene YNR072W, Metabolism protein genes, DNA chip fluorescence ratio): 1.5
The level of expressed mRNA in the presence of chemical substance/The level of expressed mRNA in the absence of chemical substance, yeast gene YOL096C (gene YOL096C, Metabolism protein genes, DNA chip fluorescence ratio): 1.0
The level of expressed mRNA in the presence of chemical substance/The level of expressed mRNA in the absence of chemical substance, yeast gene YOR180C (gene YOR180C, Metabolism protein genes, DNA chip fluorescence ratio): 1.1
The level of expressed mRNA in the presence of chemical substance/The level of expressed mRNA in the absence of chemical substance, yeast gene YOR316C (gene YOR316C (mitochondria-located protein gene), yeast cultured two hours with chemical substance, DNA chip fluorescence ratio to control): 2.5
The level of expressed mRNA in the presence of chemical substance/The level of expressed mRNA in the absence of chemical substance, yeast gene YOR363C (gene YOR363C, Metabolism protein genes, DNA chip fluorescence ratio): 2.0
The level of expressed mRNA in the presence of chemical substance/The level of expressed mRNA in the absence of chemical substance, yeast gene YPL040C (gene YPL040C (mitochondria-located protein gene), yeast cultured two hours with chemical substance, DNA chip fluorescence ratio to control): 1.0
The level of expressed mRNA in the presence of chemical substance/The level of expressed mRNA in the absence of chemical substance, yeast gene YPL134C (gene YPL134C (mitochondria-located protein gene), yeast cultured two hours with chemical substance, DNA chip fluorescence ratio to control): 1.0
The level of expressed mRNA in the presence of chemical substance/The level of expressed mRNA in the absence of chemical substance, yeast gene YPR184W (gene YPR184W, Metabolism protein genes, DNA chip fluorescence ratio): 1.4
level of expressed mRNA in the presence of chemical substance / level in the absence of chemical substance (yeast gene YAL018C): 1.9
The level of expressed mRNA in the presence of chemical substance/The level of expressed mRNA in the absence of chemical substance (yeast gene YAL053W): 0.9
level of expressed mRNA in the presence of chemical substance / level in the absence of chemical substance (yeast gene YAR047C): 1.7
level of expressed mRNA in the presence of chemical substance / level in the absence of chemical substance (yeast gene YAR064W): 0.9
level of expressed mRNA in the presence of chemical substance / level in the absence of chemical substance (yeast gene YBL044W): 2.7
The level of expressed mRNA in the presence of chemical substance/The level of expressed mRNA in the absence of chemical substance (yeast gene YBL048W): 7.9
The level of expressed mRNA in the presence of chemical substance/The level of expressed mRNA in the absence of chemical substance (yeast gene YBL107C): 1.1
level of expressed mRNA in the presence of chemical substance / level in the absence of chemical substance (yeast gene YBR012C): 1.7
level of expressed mRNA in the presence of chemical substance / level in the absence of chemical substance (yeast gene YBR066C): 1.3
level of expressed mRNA in the presence of chemical substance / level in the absence of chemical substance (yeast gene YBR124W): 1.4
level of expressed mRNA in the presence of chemical substance / level in the absence of chemical substance (yeast gene YBR162C): 0.5
level of expressed mRNA in the presence of chemical substance / level in the absence of chemical substance (yeast gene YBR287W): 1.9
level of expressed mRNA in the presence of chemical substance / level in the absence of chemical substance (yeast gene YCL042W): 2.5
level of expressed mRNA in the presence of chemical substance / level in the absence of chemical substance (yeast gene YCL056C): 1.4
level of expressed mRNA in the presence of chemical substance / level in the absence of chemical substance (yeast gene YCR007C): 1.6
level of expressed mRNA in the presence of chemical substance / level in the absence of chemical substance (yeast gene YDL046W): 1.4
The level of expressed mRNA in the presence of chemical substance/The level of expressed mRNA in the absence of chemical substance (yeast gene YDL072C): 1.1
The level of expressed mRNA in the presence of chemical substance/The level of expressed mRNA in the absence of chemical substance (yeast gene YDL204W): 1.9
The level of expressed mRNA in the presence of chemical substance/The level of expressed mRNA in the absence of chemical substance (yeast gene YDL222C): 1.1
level of expressed mRNA in the presence of chemical substance / level in the absence of chemical substance (yeast gene YDR090C): 3.0
